The values below come from patent US9732071B2, “Compounds useful as modulators of TRPM8” (Senomyx, Inc., priority 2015, dated 2017).

One data set deals with T1, hTRPM8 (Homo sapiens, UniProt Q7Z2W7).
T1 construct: expressed in transfected cells
The data set is described as follows: hTRPM8 agonist assay in a mammalian cell line stably expressing hTRPM8. It is filed as cell-based. As for the experimental part: A mammalian cell line derivative which stably expresses hTRPM8 was used in biological assays in association with testing the present compounds with cool-tasting or -feeling properties (Servant et al. US 2007/0259354 A1 and references cited therein). Typical compound concentrations tested were 100 μM, 30 μM, 10 μM, 3.3 μM, 1.1 μM, 0.37 μM, 0.12 μM, 0.04 μM, 0.01 μM and more dilutions for very potent compounds. The present compounds have shown strong activity as agonists of hTRPM8. […] For the sake of comparison, the EC50 of Comparative Compound 1, which was previously disclosed in U.S. 2013/0324557 A1 and has the structure

A short description of another data set: Solubility studies. It is filed as physicochemical. How it is done: For the sake of comparison, the solubility of Comparative Compound 1, which was previously disclosed in U.S. 2013/0324557 A1, was also measured.
For a further data set, the system named is panelists. Put plainly: Cool Line Scale Test (sensory study, cooling intensity versus 45 μM WS-3). It is filed as in vivo, human. The following applies: for Sensory Results: cooling compared with 45 μM WS-3: 5 μM compound, Low Sodium Buffer pH ~7.1, 0.1% ethanol, 15 point line scale; for lingering effect: cool line scale test. How it is done: A typical sensory study is described below followed by Table 5 summarizing sensory results of Compounds 101-105.
All samples made with Low Sodium Buffer (LSB) pH ˜7.1 and contain 0.1% ethanol.
Compounds are rated on a 15 point line scale where 45 μM WS-3 (N-Ethyl-p-menthane-3-carboxamide) is ranked as a 5 in cool intensity. In most cases, the compounds are tested to determine at what concentration the cooling intensity is equivalent to 45 μM WS-3. In each test, the panelist is presented with a 0 μM control sample, a 45 μM WS-3 control sample and the experimental compound sample and asked to rate the cooling intensity of each sample. [0218]

Where [1] appears, read: cell line stably expressing hTRPM8, read-out: EC50.
[2] abbreviates: pH 7.1, aqueous buffer, read-out: Solubility (pH 7.1).
The mark [3] stands for this setting: aqueous buffer, pH 4.0, read-out: Solubility (pH 4.0).

Converted amounts (≈) assume the structure as drawn. Like-named read-outs stand apart in the source and are kept apart here.

T1 sequence (Q7Z2W7 whole entry): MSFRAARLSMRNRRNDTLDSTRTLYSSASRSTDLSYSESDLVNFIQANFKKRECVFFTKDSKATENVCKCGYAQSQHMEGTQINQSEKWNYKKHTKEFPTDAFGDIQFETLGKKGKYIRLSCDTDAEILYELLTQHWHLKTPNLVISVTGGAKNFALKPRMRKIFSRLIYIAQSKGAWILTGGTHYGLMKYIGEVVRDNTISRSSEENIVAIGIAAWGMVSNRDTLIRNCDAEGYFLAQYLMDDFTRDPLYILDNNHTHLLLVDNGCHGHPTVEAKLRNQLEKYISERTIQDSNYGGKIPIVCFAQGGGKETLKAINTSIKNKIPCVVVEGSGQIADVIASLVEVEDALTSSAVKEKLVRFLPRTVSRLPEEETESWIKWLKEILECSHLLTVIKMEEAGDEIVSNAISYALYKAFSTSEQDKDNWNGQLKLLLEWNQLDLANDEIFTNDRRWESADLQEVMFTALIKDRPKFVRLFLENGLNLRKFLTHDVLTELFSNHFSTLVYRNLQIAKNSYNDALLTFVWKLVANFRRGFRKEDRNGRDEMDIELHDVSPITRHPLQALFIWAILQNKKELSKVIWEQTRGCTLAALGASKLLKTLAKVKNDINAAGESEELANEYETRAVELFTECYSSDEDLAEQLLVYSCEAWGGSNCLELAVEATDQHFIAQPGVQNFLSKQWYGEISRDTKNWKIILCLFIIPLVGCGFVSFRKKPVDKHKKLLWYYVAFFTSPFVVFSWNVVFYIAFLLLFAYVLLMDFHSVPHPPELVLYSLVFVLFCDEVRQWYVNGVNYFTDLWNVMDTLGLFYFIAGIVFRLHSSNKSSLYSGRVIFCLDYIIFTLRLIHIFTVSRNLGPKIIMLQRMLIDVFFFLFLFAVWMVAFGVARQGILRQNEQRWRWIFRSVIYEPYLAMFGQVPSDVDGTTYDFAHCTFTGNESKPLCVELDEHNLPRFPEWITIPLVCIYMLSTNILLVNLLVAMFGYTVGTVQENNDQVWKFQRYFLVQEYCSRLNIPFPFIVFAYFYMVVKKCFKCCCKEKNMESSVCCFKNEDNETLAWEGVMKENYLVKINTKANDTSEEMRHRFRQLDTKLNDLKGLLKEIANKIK

Consider `O=C(COc1ccc(F)cc1)N(Cc1cccs1)c1cc[nH]n1` [Compound 102, 2-(4-flourophenoxy)-N-(1H-pyrazol-5-yl)-N-(thiophen-2-ylmethyl)acetamide], for which, at hTRPM8 (setting [1]), the EC50 is 10.7 nM. Further, in the data set “Solubility studies”, the “Solubility (pH 7.1)” value was “unexpectedly superior solubility”. Moreover, the solubility in “Solubility studies” (setting [2]) stood at 503 µM (≈ 167 µg/mL).

Turning to `Cc1cccc(OCC(=O)N(Cc2cccs2)c2cc[nH]n2)c1` [Compound 101, N-(1H-pyrazol-3-yl)-N-(thiophen-2-ylmethyl)-2-(m-tolyloxy)acetamide], the EC50 on hTRPM8 (setting [1]) was found to be 6.1 nM. Also, the results for the solubility in “Solubility studies” (setting [3]) and in the data set “Solubility studies” (setting [2]) were 517 µM (≈ 169 µg/mL) and 152 µM (≈ 49.8 µg/mL), respectively. Further, the “Solubility (pH 4.0)” value in the data set “Solubility studies” (pH 4.0) is “unexpectedly superior solubility”.

For `COc1ccc(OCC(=O)N(Cc2cccs2)c2cc[nH]n2)cc1` [Compound 103, 2-(4-methoxyphenoxy)-N-(1H-pyrazol-3-yl)-N-(thiophen-2-ylmethyl)acetamide], at hTRPM8 (setting [1]), the EC50 amounted to 4.9 nM. Moreover, in the data set on panelists, the “Sensory Results: cooling compared with 45 μM WS-3” value was “equivalent to the cooling 45” and the lingering effect entry is reported as “unexpected lingering effect”. In “Solubility studies”, the “Solubility (pH 7.1)” value is given as “unexpectedly superior solubility”. The solubility in the data set “Solubility studies” (setting [2]) was 403 µM (≈ 138 µg/mL).

Regarding `Cc1ccc(OCC(=O)N(Cc2cccs2)c2ccn[nH]2)cc1` [Comparative Compound 1, reference compound], at hTRPM8 (setting [1]), the EC50 is 0.3 nM. Besides, the solubility in “Solubility studies” (setting [3]) stood at 106 µM (≈ 34.7 µg/mL); in “Solubility studies” (setting [2]) it was 171 µM (≈ 56 µg/mL).

`CCc1ccc(OCC(=O)N(Cc2cccs2)c2cc[nH]n2)cc1` [Compound 104, 2-(4-ethylphenoxy)-N-(1H-pyrazol-3-yl)-N-(thiophen-2-ylmethyl)acetamide]: on hTRPM8 (setting [1]), the EC50 was less than 1 nM. In the data set with panelists, the “Sensory Results: cooling compared with 45 μM WS-3” value is on record as “significantly more cooling” and the lingering effect entry is listed as “unexpected lingering effect”.

Take `Cc1ccc(OCC(=O)N(Cc2cccs2)c2cc[nH]n2)cc1C` [Compound 105, 2-(3,4-dimethylphenoxy)-N-(1H-pyrazol-3-yl)-N-(thiophen-2-ylmethyl)acetamide]: the EC50 at hTRPM8 amounted to 0.7 nM. Moreover, the lingering effect entry with panelists was “unexpected lingering effect”.

What is called EC50 is the concentration that produces a half-maximal response. Usually solubility stands for the dissolved amount per volume that the medium holds.
